From patent publication US20140378451A1, “Cannabinoid-2-Receptor Agonists” (ISIS INNOVATION LIMITED, priority 2011, published 2014) come the findings set out here.

For one test, the target named is T1, hCB2R (Homo sapiens, UniProt P34972).
T1 construct: unnamed tag of the plasmid; expressed in transfected cells
The experiment in a line: cAMP assay on hCB2R clone 3D8.3 (transfected CHO-K1 cells). It is filed as cell-based. As to conditions: for IC50: cAMP, hCNR2 CHO-K1 3D8.3 clone, read-out: Assay 1 IC50. The method, then:
(§1) Compounds were evaluated for their CB2R agonist potency in the following assays:
Assay 1—cAMP Assay on hCB2R Clone 3D8.3:
Chinese hamster ovary cells (CHO)-K1 were transfected with hCB2R plasmid using Genejuice (Merck). After 48 h the cells were transferred into flasks in the presence of the antibiotic G418 and expanded (with continuous replenishment of the antibiotic). Two single-cell cloning rounds were then performed, followed by verification of the presence of the tag of the plasmid and confirming the receptor was functional in cAMP studies. For the screening of compounds: Briefly, hCNR2 CHO-K1 (3D8.3 clone) cells were plated in Optimem+1% FCS (30000 cells, 100 ul per well) in half-area 96-well plates (Corning 3885) and placed in an incubator 37° C. 5% CO2 overnight. Next day, the medium was aspirated and replaced with ‘antibody solution’ (22.5 ul) (provided concentrated, diluted 1 in 3 with ‘assay buffer’ provided). The freshly made compounds (at a ×4 final concentration) or solvent alone (1.2% DMSO) were added to the wells and incubated for 30 minutes in a 37° C. incubator 5% CO2. A mixture of: Lysis solution (38%), substrates (Emerald-II™ (10%) and Galacton-Star® (2%)) and enzyme donor-labeled cAMP (50%) was added to the wells and incubated in the dark for one hour at room temperature. 30 μl of detection reagent (enzyme acceptor, provided) was then added to the wells and incubated in the dark for 3 hours at room temperature. The luminescence was then read with a Perkin-Elmer luminometer.
In general terms: cAMP levels reflect the balance of adenylyl cyclase and phosphodiesterase activity.

In the next test the target is T2, hCNR2 (CB2R) (Homo sapiens, UniProt P34972).
T2 construct: host or cells: CHO-K1 (purchased recombinant cell line)
Kind of test: DiscoveRx cAMP Hunter Express GPCR assay (hCNR2 CHO-K1 cells). As to conditions: cAMP Hunter eXpress, hCNR2 CHO-K1 cells; read-out: Assay 2 IC50. It is filed as cell-based. The method, then: as §1
Assay 2—DiscoveRx cAMP Hunter Express GPCR Assay
The cAMP Hunter eXpress GPCR assay kit and cells used are from DiscoveRx Corporation (95-0040E2) using the manufacturer's protocol without the optional IBMX step. […] Briefly, hCNR2 CHO-K1 cells were plated in the provided medium (50 ul per well) in half-area 96-well plates (Corning 3885) and placed in an incubator 37° C. 5% CO2 overnight. Next day, the medium was aspirated and replaced with ‘antibody solution’ (22.5 ul) (provided concentrated, diluted 1 in 3 with ‘assay buffer’ provided). The freshly made compounds (at a ×4 final concentration) or solvent alone (1.2% DMSO) were added to the wells and incubated for 30 minutes in a 37° C. incubator 5% CO2. A mixture of lysis solution and two substrates (provided with the DiscoveRx kit) was added to the wells and incubated in the dark for one hour at room temperature. A detection reagent (provided) was then added to the wells and incubated in the dark for 3 hours at room temperature. The luminescence was then read with a Perkin-Elmer luminometer.

T2 sequence (P34972 whole entry): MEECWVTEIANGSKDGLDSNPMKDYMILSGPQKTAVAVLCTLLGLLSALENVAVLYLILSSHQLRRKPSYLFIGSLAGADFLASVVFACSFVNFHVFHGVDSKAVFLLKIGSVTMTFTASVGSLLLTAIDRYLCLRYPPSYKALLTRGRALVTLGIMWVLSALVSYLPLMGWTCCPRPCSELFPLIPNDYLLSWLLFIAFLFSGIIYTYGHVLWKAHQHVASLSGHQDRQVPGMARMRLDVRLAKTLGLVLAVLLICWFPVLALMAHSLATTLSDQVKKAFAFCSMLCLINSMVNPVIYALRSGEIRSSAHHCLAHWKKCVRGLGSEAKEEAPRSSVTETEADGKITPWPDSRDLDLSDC
T1 sequence (P34972 whole entry): as above

Usually IC50 stands for the concentration that inhibits the measured activity by half. Take `C[C@@H]1C[C@H]1C(=O)n1c2ccccc2c2nnc(SCc3ccccc3C#N)nc21` (relative stereo) [Example 40, 2′-((5-(2″-Methylcyclopropanecarbonyl)-5H-[1,2,4]triazino[5,6-b]indol-3-ylthio)methyl)benzonitrile]: at hCB2R, the IC50 was 628 nM.
Still for that read-out and setting: then `N#Cc1ccccc1CSc1nnc2c3ccccc3n(C(=O)[C@@H]3C[C@H]3c3ccccc3)c2n1` (stereo in doubt) [Example 38, 2′-((5-(2″-Phenylcyclopropanecarbonyl)-5H-[1,2,4]triazino[5,6-b]indol-3-ylthio)methyl)benzonitrile], with 72 nM.
As to `O=[N+]([O-])c1ccccc1CSc1nnc2c(n1)[nH]c1ccccc12` [Example 1, 3-((2′-nitrobenzyl)thio)-5H-[1,2,4]triazino[5,6-b]indole], the IC50 at hCNR2 (CB2R) was 33 nM; on hCB2R, 129 nM.
For the molecule `N#Cc1ccccc1CSc1nnc2c(n1)[nH]c1ccccc12` [Example 2, 3-((2′-Cyanobenzyl)thio)-5H-[1,2,4]triazino[5,6-b]indole], the values for the IC50 at hCNR2 (CB2R) and on hCB2R were 112 nM and 160 nM, respectively.
Taken in the same sequence, the figures for `N#Cc1ccccc1CSc1nnc2c3ccccc3n(Cc3ccccc3)c2n1` [Example 3, 2′-(((5-Benzyl-5H-[1,2,4]triazino[5,6-b]indol-3-yl)thio)methyl)benzonitrile] were 214 nM and 96 nM.
For the molecule `N#Cc1ccccc1CSc1nnc2c3ccccc3n(Cc3ccc(Cl)cc3)c2n1` [Example 5, 2′(((5-(4″-Chlorobenzyl)-5H-[1,2,4]triazino[5,6-b]indol-3-yl)thio)methyl)benzonitrile], at hCB2R, the IC50 was roughly 600 nM.
As for `O=[N+]([O-])c1ccccc1CSc1nnc2c3ccccc3n(Cc3ccc(Cl)cc3)c2n1` [Example 6, 5-(4″-Chlorobenzyl)-3-((2′-nitrobenzyl)thio)-5H-[1,2,4]triazino[5,6-b]indole], the IC50 on hCNR2 (CB2R) turned out to be 109 nM; on hCB2R, 631 nM.
Take `O=C(c1ccccc1)n1c2ccccc2c2nnc(SCc3ccccc3[N+](=O)[O-])nc21` [Example 7, (3-((2′-Nitrobenzyl)thio)-5H-[1,2,4]triazino[5,6-b]indol-5-yl)(phenyl)methanone]: the IC50 was found to be 75 nM at hCNR2 (CB2R) and 840 nM at hCB2R.
For the molecule `N#Cc1ccccc1CSc1nnc2c(n1)[nH]c1cccc(Br)c12` [Example 8, 2′-(((9-Bromo-5H-[1,2,4]triazino[5,6-b]indol-3-yl)thio)methyl)benzonitrile], the IC50 at hCNR2 (CB2R) came out at 39 nM; at hCB2R, 228 nM.
For the molecule `O=[N+]([O-])c1ccccc1CSc1nnc2c(n1)[nH]c1cccc(Br)c12` [Example 9, 9-Bromo-3-((2′-nitrobenzyl)thio)-5H-[1,2,4]triazino[5,6-b]indole], the values for the IC50 on hCNR2 (CB2R) and on hCB2R were 37 nM and 280 nM, respectively.
`O=[N+]([O-])c1ccccc1CSc1nnc2c3ccccc3n(Cc3ccccc3)c2n1` [Example 14, 5-Benzyl-3-((2′-nitrobenzyl)thio)-5H-[1,2,4]triazino[5,6-b]indole]: the “Assay 1 activity at 3 μM” value at hCB2R is reported as roughly 40% activity at 3 μM.
Consider `Cc1ccccc1CSc1nnc2c(n1)[nH]c1ccccc12` [Example 15, 3-((2′-Methylbenzyl)thio)-5H-[1,2,4]triazino[5,6-b]indole], for which the IC50 on hCNR2 (CB2R) stood at 215 nM.
For the molecule `COc1ccc(C(=O)n2c3ccccc3c3nnc(SCc4ccccc4C#N)nc32)cc1OC` [Example 17], the “Assay 1 activity at 3 μM” value at hCB2R is reported as roughly 60% activity at 3 μM.
On to `CC(=O)n1c2ccccc2c2nnc(SCc3ccccc3C#N)nc21` [Example 29, 2′(((5-Acetyl-5H-[1,2,4]triazino[5,6-b]indol-3-yl)thio)methyl)benzonitrile], for which the IC50 at hCB2R is greater than 3000 nM.
Consider `CCn1c2ccccc2c2nnc(SCc3ccccc3C#N)nc21` [Example 30, 2′-(((5-Ethyl-5H-[1,2,4]triazino[5,6-b]indol-3-yl)thio)methyl)benzonitrile], for which the IC50 at hCB2R was 674 nM.
Turning to `CCCCn1c2ccccc2c2nnc(SCc3ccccc3C#N)nc21` [Example 31, 2′-(((5-Butyl-5H-[1,2,4]triazino[5,6-b]indol-3-yl)thio)methyl)benzonitrile], the IC50 at hCB2R came to 106 nM.
The same measure, in the same setting: then `N#Cc1ccccc1C[S+]([O-])c1nnc2c(n1)[nH]c1ccccc12` (stereo not drawn) [Example 32, 2′-(((5H-[1,2,4]Triazino[5,6-b]indol-3-yl)sulfinyl)methyl)benzonitrile], with 3550 nM; and `O=[N+]([O-])c1ccc(CSc2nnc3c(n2)[nH]c2ccccc23)cc1` [Example 33, 3-((4′-Nitrobenzyl)thio)-5H-[1,2,4]triazino[5,6-b]indole], with 617 nM.
Same read-out and setting: then `N#Cc1ccccc1CSc1nnc2c3ccccc3n(S(=O)(=O)c3ccccc3)c2n1` [Example 34, 2′-(((5-(Phenylsulfonyl)-5H-[1,2,4]triazino[5,6-b]indol-3-yl)thio)methyl)benzonitrile], with 76 nM; and `N#Cc1ccccc1CSc1nnc2c3ccccc3n(CC3CCCCC3)c2n1` [Example 36, 2′-(((5-(Cyclohexylmethyl)-5H-[1,2,4]triazino[5,6-b]indol-3-yl)thio)methyl)benzonitrile], with 270 nM; and `N#Cc1ccccc1CSc1nnc2c3ccccc3n(Cc3ccc(F)cc3)c2n1` [Example 37, 2′-(((5-(4″-Fluorobenzyl)-5H-[1,2,4]triazino[5,6-b]indol-3-yl)thio)methyl)benzonitrile], with 45 nM.
On the same count and under the same terms, as for `N#Cc1ccccc1CSc1nnc2c3ccccc3n(CC(=O)C3CC3)c2n1` [Example 39, 2′-((5-(2-Cyclopropyl-2-oxoethyl)-5H-[1,2,4]triazino[5,6-b]indol-3-ylthio)methyl)benzonitrile], the figure is 549 nM; as for `N#Cc1ccccc1CSc1nnc2c3ccccc3n(CC3CC3)c2n1` [Example 41, 2′-((5-(Cyclopropylmethyl)-5H-[1,2,4]triazino[5,6-b]indol-3-ylthio)methyl)benzonitrile], 144 nM.
For `N#Cc1ccccc1CSc1nnc2c3ccccc3n(C(=O)C3CC3)c2n1` [Example 42, 2′-(((5-(Cyclopropanecarbonyl)-5H-[1,2,4]triazino[5,6-b]indole-3-yl)thio)methyl)benzonitrile], the IC50 at hCB2R stood at 181 nM.
On to `N#Cc1ccccc1CSc1nnc2c3c(Br)cccc3n(CC3CC3)c2n1` [Example 43, 2′-(((9-Bromo-5-(cyclopropylmethyl)-5H-[1,2,4]triazino[5,6-b]indol-3-yl)thio)methyl)benzonitrile], for which the IC50 at hCB2R amounted to 20 nM.
The same measure, in the same setting: then `N#Cc1ccccc1CSc1nnc2c3c(Br)cccc3n(C(=O)C3CC3)c2n1` [Example 44, 2′-(((9-Bromo-5-(cyclopropanecarbonyl)-5H-[1,2,4]triazino[5,6-b]indol-3-yl)thio)methyl)benzonitrile], with 16 nM; and `O=C(O)c1ccccc1CSc1nnc2c(n1)[nH]c1ccccc12` [Example 46, 2′-(((5H-[1,2,4]Triazino[5,6-b]indol-3-yl)thio)methyl)benzoic], with 2180 nM.
Still for that read-out and setting: as for `c1ccc(-c2nn[nH]n2)c(CSc2nnc3c(n2)[nH]c2ccccc23)c1` [Example 47], the figure is 11 nM; as for `Cc1ccccc1-c1cccc2[nH]c3nc(SCc4ccccc4C#N)nnc3c12` [Example 48, 2″-(((9-(o-Tolyl)-5H-[1,2,4]triazino[5,6-b]indol-3-yl)thio)methyl)benzonitrile], 4300 nM; as for `COc1ccc(-c2cccc3[nH]c4nc(SCc5ccccc5C#N)nnc4c23)cc1` [Example 49, 2″-(((9-(4′-Methoxyphenyl)-5H-[1,2,4]triazino[5,6-b]indol-3-yl)thio)methyl)benzonitrile], 2620 nM.
The same measure, in the same setting: as for `N#Cc1ccccc1CSc1nnc2c(n1)[nH]c1cccc(-c3ccsc3)c12` [Example 50, 2″-(((9-(Thiophen-3′-yl)-5H-[1,2,4]triazino[5,6-b]indol-3-yl)thio)methyl)benzonitrile], the figure is 1760 nM.
On to `N#Cc1ccccc1CSc1nnc2c(n1)[nH]c1cccc(C3CC3)c12` [Example 51, 2″-(((9-Cyclopropyl-5H-[1,2,4]triazino[5,6-b]indol-3-yl)thio)methyl)benzonitrile], for which the IC50 at hCB2R came out at 231 nM.
